Like-named read-outs stand apart in the source and are kept apart here.
Legend:
[1] = Abiotic CYP (aCYP) oxidation, remaining parent compound (Cparent-Ratio)
Protocol: The mixtures were adjusted to a final volume of 100 μL with acetonitrile (ACN). The reaction mix was incubated for 15 min at 30 °C and 1000 rpm on a Bioshake iQ orbital shaker from QInstruments (Jena, Germany). Additionally, a mixture without test compounds was prepared as a control. Subsequently, 10 μL of the reaction mixture was transferred into a conical dosing vial and evaporated under a nitrogen flow.
For chemical analysis, 10 μL of the reaction mixture was concentrated under vacuum (CentriVap, Labconco, Kansas City, MO, USA), diluted to 1 mg/L in ACN or ethyl acetate. The chemical analysis of the reaction mixtures was performed using liquid chromatography (LC) and gas chromatography (GC) coupled with various detection techniques, preferably Multiple Reaction Monitoring (MRM). Data acquisition and processing were carried out using the software MassHunter. Quantification was based on external calibrations.
The Cparent-Ratio quantifies the extent of oxidation of the parent compound after the abiotic CYP reaction. It was calculated as the ratio of the parent compound concentration after oxidation (C parent, after oxidation) to its concentration before oxidation (C parent, before oxidation) as shown in eq . […] 8 Cparent‐Ratio=Cparent,after oxidation/Cparent,before oxidation

Estrogen Receptor ERα = molecular target: T1, Estrogen Receptor ERα (Homo sapiens, UniProt P03372); assay: cell-based; conditions: This Study
T1 sequence (P03372 311-547 limits assumed): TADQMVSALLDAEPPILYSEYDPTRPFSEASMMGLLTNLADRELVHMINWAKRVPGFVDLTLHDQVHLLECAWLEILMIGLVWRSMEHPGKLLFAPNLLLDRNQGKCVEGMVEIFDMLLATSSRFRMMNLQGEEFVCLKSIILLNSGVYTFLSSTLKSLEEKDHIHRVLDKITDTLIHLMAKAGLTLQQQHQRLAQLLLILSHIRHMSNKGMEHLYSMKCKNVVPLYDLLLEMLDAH
Source text: All bioassay media components and the ERα-UAS-bla GripTite and PPARγ-UAS-bla cells were obtained from Thermo Fisher Scientific (Waltham, MA, USA). AREc32 reporter gene cells based on MCF7 were provided by C. Roland Wolf (Cancer Research UK); AhR CALUX cells (H4L7.5c2 derived from H4IIe) were provided by Michael Denison (UC Davis, USA); and SH-SY5Y cells were purchased from Sigma-Aldrich.
Cell culture conditions and bioassay protocols including response detection are provided in Text S2.1–2.4 and Table S3. − Cell viability was determined from cell confluency using an IncuCyte S3 Live-Cell Analysis System (Sartorius AG, Essen, Germany) before and after exposure, except for SH-SY5Y cells (live–dead staining with Nuclear Green LcS1 and propidium iodide, Abcam, UK). For metabolic activation experiments, cell viability was assessed using the ToxBLAzer DualScreen Kit (Thermo Fisher Scientific) to capture the remaining toxicity in ERα-UAS-bla GripTite after treatment with the aCYP catalyst (details in Text S2.4).
For ARE, the concentration that triggered an induction ratio of 1.5 (ECIR1.5) was used as the benchmark value, as detailed in Text S2.5. IC10 values also served as a threshold for data analysis in all assays; only concentrations below IC10 were considered when deriving EC10 or ECIR1.5.
The maximum efficacy (Emax%) refers to the maximum of the log–logistic concentration–response curve attained by test chemicals compared to the reference chemical’s maximum and was obtained for both ERα and PPARγ. […]
S2: Cell culture and bioassays
S2.1: Cell Culturing Conditions
All suppliers and sources are given in detail in SI-Excel S3. The bioassay media for the different assays were prepared as follows: Assay medium for ER alpha-UAS-bla GripTite (ERα) and […]
2% charcoal-stripped FBS, and 100 U/mL penicillin-streptomycin. […]
S2.2: Cell Seeding and Incubation. For all bioassays, cell suspensions in the respective assay medium were dispensed into each well of 384-well plates using a MultiFlo Dispenser (Biotek, (now Agilent), Winooski, VT, U.S.). After seeding, the plates were incubated at 37° C and 5% CO₂ for […]. The final cell densities and plate types were as follows: Black poly-D-lysine […]
6500 cells/well, ERα: 5000 cells/well. White 384-well plates with a clear bottom (Product No. […]
S2.3: Chemical Dosing and Assay Analysis Procedures.

ERα = conditions: ref Pelch et al 2019; cited from earlier work
Tox21 assays [2] = assay: Re-evaluated Tox21 data (Adamovsky et al.), REPBPA and SRbaseline; conditions: for REPBPA: Relative Effect Potency; for SRbaseline: Specificity Ratio;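 on all read-outs here: published Tox21 results reanalysed with a revised model predicting baseline toxicity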
Source text: We also reanalyzed the Tox21 data of Adamovsky et al. with the updated baseline toxicity prediction model (Table S2).

Tox21 assays [3] = conditions: re-evaluated Tox21 data, ref Adamovsky et al 2024, cited from earlier work
keratinocytes = system: keratinocytes; design: method as in Son et al.; conditions: ref Son et al.; cited from earlier work
[4] = design: method as in ref EFSA; conditions: in vitro and in vivo data; ref EFSA; cited from earlier work
[5] = design: method as in ref 12 (ECHA); conditions: ref 12 (ECHA), cited from earlier work
[6] = TOX21_AR_LUC_MDAKB2_Antagonist_0,5nM_R1881
[7] = TOX21_PPARg_BLA_antagonist_ratio

## O=S(=O)(c1ccc(O)cc1)c1ccccc1O [2, 4BPS]
[1]; Table S9, loss of parent after aCYP oxidation
  % Loss: -4.66%
[1]; Table S9, mean of two replicate experiments
  Cparent-Ratio Mean: 1.05
[1]; Table S9, replicate 1
  Cparent-Ratio Rep.1 %: 108.33%
[1]; Table S9, replicate 1, as fraction
  Cparent-Ratio Rep.1: 1.08
[1]; Table S9, replicate 2
  Cparent-Ratio Rep.2 %: 100.98%
[1]; Table S9, replicate 2, as fraction
  Cparent-Ratio Rep.2: 1.01

## O=S(=O)(c1ccc(O)cc1)c1ccccc1O [24BPS]
Estrogen Receptor ERα
  Efficacy %: 19.00%
Estrogen Receptor ERα; ERα, in M
  EC10: 1.98E-05
Estrogen Receptor ERα; relative estrogenic potency vs BPA
  REPBPA: 1.87E-02
ERα
  Efficacy %: 24.30%

## Cc1cc(C(C)(C)c2ccc(O)c(C)c2)ccc1O [BPC]
Tox21 assays [2]; ATG_PPARg_TRANS_up
  REPBPA: 0.85
  SRbaseline: 17.78
Tox21 assays [2]; [6]
  REPBPA: 2.85
  SRbaseline: 39.40
Tox21 assays [2]; [7]
  SRbaseline: 10.83
Tox21 assays [3]; ATG_PPARg_TRANS_up
  EC10: 1880 nM
Tox21 assays [3]; [6]
  EC10: 850 nM
Tox21 assays [3]; [7]
  EC10: 3090 nM

## CC1(C)C(O)C(C)(C)C1O (centres unmarked) [TMCD, 2,2,4,4-tetramethyl-1,3-cyclobutanediol]
keratinocytes
  concentration with statistically significant reduced cell viability: 350 µM
[4]
  genotoxicity categorisation: nongenotoxic
[5]; aqueous solution
  degradation in OECD guideline test 301B: no degradation
[5]
  time reported to remain stable: 22 days
[1]
  parent compound during aCYP oxidation: remained unchanged

Reference: paper PMC12392461, “Beyond Estrogenicity: A Comparative Assessment of Bisphenol A and Its Alternatives in In Vitro Assays Questions Safety of Replacements” (Environmental Science & Technology, 2025)
